Molecules are shown by their SMILES.

One compound from patent US20230310427A1, “NEW THERAPEUTIC USE OF RILPIVIRINE” (UNIVERSITY OF SOUTH AUSTRALIA, priority 2020, published 2023) can be followed below.

Common to all, as to type: cell-based
Assay [1] has as its system cleaved PARP (poly (ADP-ribose) polymerase). Put plainly: Western blot of cell lysates, apoptosis markers. As to conditions: increasing concentrations; data not shown. How it is done:
(§1) For Western blotting, cells (8×10^5) were seeded in a culture dish with 10 mL medium and incubated overnight at 37° C., 5% CO2. Untreated and compound-treated cells were lysed using phosphate lysis buffer and protease inhibitors. The protein concentration of each sample was determined by Bio-Rad DC™ protein assay (Bio-Rad Laboratories, Hercules, CA, United States of America). The protein was deactivated at 95° C. for 5 min and then resolved on 4-20% polyacrylamide gels by electrophoresis. Proteins were transferred to polyvinylidene difluoride (PDVF) membrane and blocked for 1 h with 10% skimmed milk (SM) in Tris-buffered saline and Tween (TBST). After adding primary antibody, the membranes were incubated overnight on a rocker in a 4° C. cold room. The following day, membranes were washed in TBST (4×20 min), incubated for at least 1 h at room temperature with the appropriate horseradish peroxidase conjugated secondary antibody. Following this, the blots were washed with TBST (4×20 min) again. The blots were then treated with Western blotting detection reagent and the band intensity was determined using a Bio-Rad ChemiDoc™ MP imaging system (Bio-Rad Laboratories). All the antibodies used for protein detection were from Cell Signaling Technology (Danvers, MA, United States of America). […]
(In western blotting, separated proteins are transferred to a membrane and probed.)

In another assay the test system is bc1-2. Kind of assay: Western blot of cell lysates, apoptosis markers. As to conditions: increasing concentrations; data not shown. How it is done: as §1
Assay [2] deals with auto-phosphorylation of Aurora A at Thr288 in HL-60 cells. Put plainly: Western blot, Aurora A auto-phosphorylation. To be noted: 24 hour, 5 µM, 10 µM and 20 µM. As to the method: as §1
Assay [3] has as its system auto-phosphorylation of Aurora A at Thr288 in NB4 cells. Put plainly: Western blot, Aurora A auto-phosphorylation. To be noted: 24 hour, 5 µM, 10 µM and 20 µM. As to the method: as §1
The next assay concerns p53 WT A2780 cells. Kind of assay: Apoptosis analysis (Annexin-V FITC/PI). As to conditions: 48 hour treatments, various concentrations. How it is done: (§2) Instead of ethanol fixation, the cell number of each sample was counted, and the cells were diluted to 1×10^5 cells with 1 mL PBS in fresh FACS tubes. Cells were centrifuged and then re-suspended in 1 mL of cold PBS (whole step repeated twice). Pelleted cells were resuspended in 100 µL binding buffer, and subsequently 3 µL of Annexin V and 3 µL of PI were added to all tubes and incubated in the dark for 15 min at room temperature. Following the incubation period, 200 µL of 1 x binding buffer was added. Samples were assessed using a flow cytometer (Cytoflex) within 1 h of staining and data were analysed using Cytexpert software.

In assay [4] the test system is Jurkat cells. Kind of assay: Apoptosis analysis (Annexin-V FITC/PI). To be noted: 48 hour treatment, various concentrations. How it is done:
as §2

Assay [5] relates to HL-60 cells. Put plainly: Apoptosis analysis (Annexin-V FITC/PI). To be noted: 48 hour treatment, various concentrations. As to the method: as §2
In assay [6] the test system is NB4 cells. Kind of assay: Apoptosis analysis (Annexin-V FITC/PI). As to conditions: 48 hour treatment, various concentrations. How it is done: as §2
In a further assay the test system is PC3 cells. Put plainly: Cell cycle analysis (flow cytometry). To be noted: 48 hour treatment; p53 mutant. How it is done: (§3) The effect of Rilpivirine on cell cycle distribution in different cancer cell lines was evaluated by flow cytometric analysis. Briefly, cells were seeded in 6-well plates at a density of 6 × 10^4 cells/well. All plates were incubated overnight at 37° C. in a 5% CO2 incubator. Following the incubation, the test compounds (Rilpivirine (Ril) and comparators, Alisertib (Ali; a known Aurora A inhibitor) and Etravirine (Etra; 4-[[6-amino-5-bromo-2-[(4-cyanophenyl)amino]-4-pyrimidinyl]oxy]-3,5-dimethylbenzonitrile - a structurally similar NNRTI drug compound sold under the brand name Intelence® (Janssen Therapeutics)) were added to individual wells and the plates were incubated at same condition for 24 h, 48 h or 72 h. Subsequently, the medium was removed from the wells and transferred into fluorescence-activated cell sorting (FACS) tubes. The adherent cells remaining were trypsinised, re-suspended in media and transferred into the FACS tubes. Cells were centrifuged, fixed with cold 70% ethanol for 15 min and pelleted. The pelleted cells were then re-suspended in 200 µL propidium iodide (PI) solution (50 µg/mL propidium iodide, 0.1 mg/mL ribonuclease A, 0.1% sodium citrate, 0.1% triton X-100) and incubated in the dark for 1.5 h at room temperature. Following the incubation, 200 µL PBS was added. Samples were assessed using a flow cytometer (Cytoflex; Beckman Coulter Inc, Brea, CA, United States of America) and data were analysed using the Cytexpert software.
In general terms: In flow cytometry, cells or beads pass a laser one at a time.

A further assay deals with T47D cells. Kind of assay: Cell cycle analysis (flow cytometry). As to conditions: 48-hour treatment; p53 mutant. How it is done: as §3
The subject of another assay is K-562 cells. Put plainly: Cell cycle analysis (flow cytometry). To be noted: various concentrations, 24 hour. As to the method: as §3
Assay [7] deals with Jurkat cells. Put plainly: Cell cycle analysis (flow cytometry). To be noted: various concentrations, 24 hour. How it is done: as §3
The subject of a further assay is U-937 cells. Kind of assay: Cell cycle analysis (flow cytometry). To be noted: various concentrations, 24 hour. How it is done:
as §3

For assay [8], the system named is p53 wild-type (WT) A2780 cells. Put plainly: Cell cycle analysis (flow cytometry). To be noted: 24, 48 and 72 hour. How it is done: as §3
Assay [9] deals with HL-60 cells. Kind of assay: Cell cycle analysis (flow cytometry). As to the method: as §3
Assay [10] has as its system NB4 cells. Kind of assay: Cell cycle analysis (flow cytometry). To be noted: various concentrations, 24 hour. How it is done:
as §3

The subject of assay [11] is phosphorylated retinoblastoma (Rb) protein in A2780 cells. Kind of assay: Western blot, cell cycle regulatory proteins. As to conditions: 24 hour, increasing amounts. How it is done: (§4) For Western blotting, cells (8×10^5) were seeded in a culture dish with 10 mL medium and incubated overnight at 37° C., 5% CO2. Untreated and compound-treated cells were lysed using phosphate lysis buffer and protease inhibitors. The protein concentration of each sample was determined by Bio-Rad DC™ protein assay (Bio-Rad Laboratories, Hercules, CA, United States of America). The protein was deactivated at 95° C. for 5 min and then resolved on 4-20% polyacrylamide gels by electrophoresis. Proteins were transferred to polyvinylidene difluoride (PDVF) membrane and blocked for 1 h with 10% skimmed milk (SM) in Tris-buffered saline and Tween (TBST). After adding primary antibody, the membranes were incubated overnight on a rocker in a 4° C. cold room. The following day, membranes were washed in TBST (4×20 min), incubated for at least 1 h at room temperature with the appropriate horseradish peroxidase conjugated secondary antibody. Following this, the blots were washed with TBST (4×20 min) again. The blots were then treated with Western blotting detection reagent and the band intensity was determined using a Bio-Rad ChemiDoc™ MP imaging system (Bio-Rad Laboratories). All the antibodies used for protein detection were from Cell Signaling Technology (Danvers, MA, United States of America). The primary and secondary antibodies used were obtained from Cell Signalling Technology (Danvers, MA, United States of America).

The next assay relates to p21 in A2780 cells. Kind of assay: Western blot, cell cycle regulatory proteins. As to conditions: 24 hour, increasing concentration. How it is done:
as §4

For a further assay, the system named is cyclin D1 in A2780 cells. Put plainly: Western blot, cell cycle regulatory proteins. To be noted: 24 hour, increasing amounts. How it is done: as §4
The test system of the next assay is p53 in A2780 cells. Put plainly: Western blot, cell cycle regulatory proteins. To be noted: 24 hour, increasing concentration. How it is done:
as §4

As to `Cc1cc(/C=C/C#N)cc(C)c1Nc1ccnc(Nc2ccc(C#N)cc2)n1` [Rilpivirine, 4-[[4-[4-[(E)-2-cyanoethenyl]-2,6-dimethylanilino]pyrimidin-2-yl]amino]benzonitrile], the “cleaved PARP in cell lysates” value in [1] is on record as “appearance in the cell lysates of cleaved PARP”. Also, the “bc1-2 level in cell lysates” value with bc1-2 is listed as “downregulation of bc1-2”. Moreover, the “level of auto-phosphorylated Aurora A (Thr288)” value in [2] and in [3] was “marked decrease in the level of auto-phosphorylated protein” throughout. The induction of apoptosis result with p53 WT A2780 cells is “induces apoptosis in this cell line in a dose-dependent manner”; with Jurkat cells [4] it was “induces apoptosis in all of these cell lines in a dose-dependent manner”; with HL-60 cells [5], “induces apoptosis in all of these cell lines in a dose-dependent manner”; in the assay on NB4 cells [6] it was “induces apoptosis in all of these cell lines in a dose-dependent manner”. The cell cycle arrest entry is “induce G2/M arrest” in the assay on PC3 cells; “arrest T47D breast cancer cells in G2/M phase” in the assay with T47D cells; “arrests both of these cell lines in the G2/M phase in a dose-dependent manner” in the assay on K-562 cells; “arrests NB4 and Jurkat cells in the G2/M phase in a dose-dependent manner” in the assay with Jurkat cells [7]; “arrests both of these cell lines in the G2/M phase in a dose-dependent manner” in the assay with U-937 cells; “arrests the cells in the G1 phase” in assay [8] (10 µM). For the same compound, the cell cycle arrest result in the assay with HL-60 cells [9] (5, 10 and 20 µM for 24 hrs, p53 null) is “arrested in the G2/M Phase”; in the assay on NB4 cells [10], “arrests NB4 and Jurkat cells in the G2/M phase in a dose-dependent manner”. Moreover, the cell cycle distribution entry in assay [8] (20 µM) is listed as “increased number of cells accumulated in Sub-G1 phase”. The “numbers of cells in G2/M” value in the assay with HL-60 cells [9] (24 hour treatment, versus diluent only) is given as “approximately doubled”. For the same compound, the “amount of phosphorylated Rb protein” value in assay [11] is “decrease”. In addition, the p21 protein entry in the assay on p21 in A2780 cells is reported as “induced its target gene p21”. In addition, in the assay on cyclin D1 in A2780 cells, the “amount of cyclin D1” value is “decrease”. In the assay with p53 in A2780 cells, the “expression of p53 protein” value is “increase in the expression of p53”.
